Like-named read-outs stand apart in the source and are kept apart here.
Experiments:
CSNK1D = CSNK1D (Homo sapiens, UniProt P48730); test: Protein kinase assay (Kinome assay); assay type: binding
Source text: (§1) The compounds of the invention were subjected to protein kinase assay.

DYRK1B = DYRK1B (Homo sapiens, UniProt Q9Y463); test: Protein kinase assay (Kinome assay); assay type: binding
Source text: as §1

JNK1 = JNK1 (Homo sapiens, UniProt P45983); test: Protein kinase assay (Kinome assay); assay type: binding
JNK1, sequence (P45983 whole entry, species assumed): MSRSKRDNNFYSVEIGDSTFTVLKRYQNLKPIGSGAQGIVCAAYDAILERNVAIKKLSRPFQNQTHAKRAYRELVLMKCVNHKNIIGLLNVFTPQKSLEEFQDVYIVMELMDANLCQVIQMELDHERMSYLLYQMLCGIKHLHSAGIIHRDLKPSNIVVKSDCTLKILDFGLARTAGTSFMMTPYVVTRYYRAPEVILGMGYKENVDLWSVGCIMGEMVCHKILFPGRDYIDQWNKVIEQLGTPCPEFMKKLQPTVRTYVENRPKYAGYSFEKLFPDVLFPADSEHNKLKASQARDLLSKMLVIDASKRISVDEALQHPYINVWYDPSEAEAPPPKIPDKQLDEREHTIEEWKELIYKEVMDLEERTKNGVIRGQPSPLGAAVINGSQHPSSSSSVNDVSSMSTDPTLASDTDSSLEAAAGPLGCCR
Source text: as §1

JNK3 = JNK3 (Homo sapiens, UniProt P53779); test: Protein kinase assay (Kinome assay); assay type: binding
JNK3, sequence (P53779 whole entry, species assumed): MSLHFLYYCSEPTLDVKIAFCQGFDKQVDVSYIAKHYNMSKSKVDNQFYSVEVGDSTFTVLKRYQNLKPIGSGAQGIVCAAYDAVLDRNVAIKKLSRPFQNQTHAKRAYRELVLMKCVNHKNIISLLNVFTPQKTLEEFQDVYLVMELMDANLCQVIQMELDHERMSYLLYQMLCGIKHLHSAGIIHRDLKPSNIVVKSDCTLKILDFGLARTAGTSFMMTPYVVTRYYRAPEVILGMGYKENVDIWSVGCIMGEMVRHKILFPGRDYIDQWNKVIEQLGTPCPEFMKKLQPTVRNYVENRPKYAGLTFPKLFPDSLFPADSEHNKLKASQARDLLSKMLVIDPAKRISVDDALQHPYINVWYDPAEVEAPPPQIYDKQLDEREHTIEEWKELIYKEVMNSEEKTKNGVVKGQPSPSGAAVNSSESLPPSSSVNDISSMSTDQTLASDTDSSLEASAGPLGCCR
Source text: as §1

PCTK1 = PCTK1 (Homo sapiens, UniProt Q00536); test: Protein kinase assay (Kinome assay); assay type: binding
PCTK1, sequence (Q00536 whole entry, species assumed): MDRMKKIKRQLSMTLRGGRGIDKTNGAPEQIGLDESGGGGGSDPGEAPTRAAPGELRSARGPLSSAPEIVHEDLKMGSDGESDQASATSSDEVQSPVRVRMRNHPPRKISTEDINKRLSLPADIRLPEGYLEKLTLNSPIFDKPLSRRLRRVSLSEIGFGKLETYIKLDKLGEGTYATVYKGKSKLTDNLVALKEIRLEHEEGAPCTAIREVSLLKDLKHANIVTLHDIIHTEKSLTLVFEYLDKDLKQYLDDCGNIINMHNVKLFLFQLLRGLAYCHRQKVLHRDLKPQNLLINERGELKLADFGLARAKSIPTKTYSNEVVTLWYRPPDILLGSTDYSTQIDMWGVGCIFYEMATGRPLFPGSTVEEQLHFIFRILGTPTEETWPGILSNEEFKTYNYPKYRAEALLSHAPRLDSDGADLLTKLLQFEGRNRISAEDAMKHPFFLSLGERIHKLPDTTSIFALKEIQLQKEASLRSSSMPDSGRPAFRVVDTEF
Source text: as §1

RIOK2 = RIOK2 (Homo sapiens, UniProt Q9BVS4); test: Protein kinase assay (Kinome assay); assay type: binding
RIOK2, sequence (Q9BVS4 whole entry, species assumed): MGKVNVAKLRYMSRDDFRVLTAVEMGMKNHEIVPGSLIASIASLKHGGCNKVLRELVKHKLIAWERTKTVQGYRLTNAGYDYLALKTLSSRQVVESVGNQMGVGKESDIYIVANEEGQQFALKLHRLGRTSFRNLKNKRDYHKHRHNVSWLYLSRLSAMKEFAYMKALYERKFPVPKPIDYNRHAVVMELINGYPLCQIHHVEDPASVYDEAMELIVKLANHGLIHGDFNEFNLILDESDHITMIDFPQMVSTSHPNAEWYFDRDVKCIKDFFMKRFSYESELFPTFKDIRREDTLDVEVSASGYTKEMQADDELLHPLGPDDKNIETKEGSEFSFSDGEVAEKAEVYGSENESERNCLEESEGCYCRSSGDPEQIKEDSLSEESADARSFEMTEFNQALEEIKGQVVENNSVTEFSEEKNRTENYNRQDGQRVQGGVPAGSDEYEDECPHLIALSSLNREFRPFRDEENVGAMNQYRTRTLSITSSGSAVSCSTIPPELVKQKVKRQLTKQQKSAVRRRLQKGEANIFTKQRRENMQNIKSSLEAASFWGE
Source text: as §1

ROCK2 = ROCK2 (Homo sapiens, UniProt O75116); test: Protein kinase assay (Kinome assay); assay type: binding
ROCK2, sequence (O75116 whole entry, species assumed): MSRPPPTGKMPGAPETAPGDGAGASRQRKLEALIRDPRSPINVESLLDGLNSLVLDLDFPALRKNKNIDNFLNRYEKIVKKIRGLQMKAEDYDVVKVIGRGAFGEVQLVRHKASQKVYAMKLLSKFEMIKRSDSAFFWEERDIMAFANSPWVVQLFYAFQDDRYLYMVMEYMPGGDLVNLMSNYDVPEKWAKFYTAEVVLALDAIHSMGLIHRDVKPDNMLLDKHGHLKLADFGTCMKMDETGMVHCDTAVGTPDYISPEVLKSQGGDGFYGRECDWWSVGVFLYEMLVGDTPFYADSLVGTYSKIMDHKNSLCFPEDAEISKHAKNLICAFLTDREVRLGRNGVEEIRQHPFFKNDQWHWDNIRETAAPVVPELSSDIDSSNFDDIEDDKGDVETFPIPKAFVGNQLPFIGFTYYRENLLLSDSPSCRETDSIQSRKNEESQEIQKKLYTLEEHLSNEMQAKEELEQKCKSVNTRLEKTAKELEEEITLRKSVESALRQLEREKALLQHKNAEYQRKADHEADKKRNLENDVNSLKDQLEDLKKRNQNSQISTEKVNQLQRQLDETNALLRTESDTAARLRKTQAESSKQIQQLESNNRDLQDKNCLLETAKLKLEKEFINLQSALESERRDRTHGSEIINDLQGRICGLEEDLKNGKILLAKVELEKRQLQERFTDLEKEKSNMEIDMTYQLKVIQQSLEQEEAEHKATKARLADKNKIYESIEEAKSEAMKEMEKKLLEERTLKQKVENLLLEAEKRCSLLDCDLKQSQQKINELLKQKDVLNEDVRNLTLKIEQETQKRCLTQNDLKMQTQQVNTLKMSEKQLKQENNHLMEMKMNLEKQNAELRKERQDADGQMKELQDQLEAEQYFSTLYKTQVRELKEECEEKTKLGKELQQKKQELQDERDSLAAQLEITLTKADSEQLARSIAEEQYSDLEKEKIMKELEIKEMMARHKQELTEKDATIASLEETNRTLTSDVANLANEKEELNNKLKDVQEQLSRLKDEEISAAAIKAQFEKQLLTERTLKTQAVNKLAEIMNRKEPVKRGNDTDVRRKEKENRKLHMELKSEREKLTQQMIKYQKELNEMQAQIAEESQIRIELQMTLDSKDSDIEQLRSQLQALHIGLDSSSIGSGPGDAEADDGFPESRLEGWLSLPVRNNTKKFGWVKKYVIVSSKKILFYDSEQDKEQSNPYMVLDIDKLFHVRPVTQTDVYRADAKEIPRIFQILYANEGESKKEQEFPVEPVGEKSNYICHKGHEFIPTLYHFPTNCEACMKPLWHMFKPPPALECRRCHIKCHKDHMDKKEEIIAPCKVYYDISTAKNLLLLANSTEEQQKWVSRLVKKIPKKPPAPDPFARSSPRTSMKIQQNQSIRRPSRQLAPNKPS
Source text: as §1

HepG2 = test: Growth inhibition assay; assay type: cell-based; settings: Homo sapiens; HepG2 (Liver cancer), 48 hours
Description: (§2) Cells were seeded in 96-well plastic plates and exposed to MPT0L056 for 48 hours. Cell viability was assessed using the 3-(4,5-dimethylthiazol-2-yl)-2,5-diphenyltetrazolium bromide assay. Growth inhibition was expressed as the percentage of surviving cells in drug-treated versus DMSO-treated control cells.

Hepatocytes = test: Growth inhibition assay; assay type: cell-based; settings: Hepatocyte; Hepatocytes (Normal cells), 48 hours
Description: as §2

MCF-7 = test: Growth inhibition assay; assay type: cell-based; settings: Homo sapiens, MCF7; MCF-7 (Breast cancer), 48 hours
Description: as §2

OVCAR3 = test: Growth inhibition assay; assay type: cell-based; settings: Homo sapiens, OVCAR-3; OVCAR3 (Ovarian cancer), 48 hours
Description: as §2

T98 = test: Growth inhibition assay; assay type: cell-based; settings: Homo sapiens; T98 (Brain cancer), 48 hours
Description: as §2

U-87 MG = test: Growth inhibition assay; assay type: cell-based; settings: Homo sapiens; U-87 MG (Brain cancer), 48 hours
Description: as §2

[1] = tested on: HCT116 human colorectal adenocarcinoma; settings: for Logrank Significance: compared to Group 1
Description: MPT0L056 was used to evaluate for activity against the HCT116 human colorectal adenocarcinoma.
However, MPT0E028 was administered orally (p.o.) in 1.0% CMC and 0.5% Tween 80 and given dose at 25 mg/kg daily to end schedule.
Each animal was euthanized when the tumors reached the predetermined endpoint size of 1,000 mm^3. The time to endpoint (TTE) for each mouse was calculated by the following equation:
[formula] where TTE is expressed in days, endpoint volume is in mm^3, b is the intercept, and m is the slope of the line obtained by linear regression of a log-transformed tumor growth data set. The data set is comprised of the first observation that exceeded the study endpoint volume and the three consecutive observations that immediately preceded the attainment of the endpoint volume. The calculated TTE is usually less than the day on which an animal is euthanized for tumor size. […] An animal classified as having died from treatment-related (TR) causes or non-treatment-related metastasis (NTRm) causes was assigned a TTE value equal to the day of death. An animal classified as having died from non-treatment-related (NTR) causes was excluded from TTE calculations.
Treatment efficacy was determined from tumor growth delay (TGD), which is defined as the increase in the median TTE for a treatment group compared to the control group: TGD=T−C, expressed in days, or as a percentage of the median TTE of the control group:
[formula] where: • T=median TTE for a treatment group, • C=median TTE for control Group 1.
Treatment efficacy was also determined from the tumor volumes of animals remaining in the study on the last day, and from the number of regression responses. The MTV(n) is defined as the median tumor volume on D59 in the number of animals remaining, n, whose tumors have not attained the endpoint volume.
Treatment may cause a partial regression (PR) or a complete regression (CR) of the tumor in an animal. […] An animal with a CR at the termination of a study is additionally classified as a tumor-free survivor (TFS).
Animals were weighed daily for the first five days, then twice weekly until the completion of the study. The mice were examined frequently for overt signs of any adverse, drug-related side effects. Acceptable toxicity for the MTD of cancer drugs is defined as a group mean BW loss of 20% or less during the test, and not more than one TR death among ten animals. A death is classified as TR if there is evidence of treatment side effects from clinical signs and/or necropsy or from unknown causes during dosing period or within 10 days of the last dose. A death is classified as NTR if there is no evidence that the death was related to treatment side effects.
The logrank test was used to determine the statistical significance of the difference between the TTE values of two groups, except any NTR deaths. Statistical and graphical analyses were performed with Prism 3.03 (GraphPad) for Windows. The two-tailed statistical analyses were conducted at P=0.05. Kaplan-Meier plots show the percentage of animals remaining in the study versus time. The Kaplan-Meier plots use the same data set as the log rank test. The tumor growth curves show the group median tumor volume, on a log scale as a function of time.

[2] = Group 1 vs 4: MPT0L056 100 mg/kg
[3] = Group 4: MPT0L056 100 mg/kg po qd to endpoint
[4] = Group 5: MPT0L056 50 mg/kg po qd to endpoint
[5] = Group 7: MPT0L056 100 mg/kg po qd + MPT0E028 25 mg/kg po qd to endpoint
[6] = Group 8: MPT0L056 50 mg/kg po qd + MPT0E028 25 mg/kg po qd to endpoint

CSNK1D, sequence (P48730 whole entry, species assumed): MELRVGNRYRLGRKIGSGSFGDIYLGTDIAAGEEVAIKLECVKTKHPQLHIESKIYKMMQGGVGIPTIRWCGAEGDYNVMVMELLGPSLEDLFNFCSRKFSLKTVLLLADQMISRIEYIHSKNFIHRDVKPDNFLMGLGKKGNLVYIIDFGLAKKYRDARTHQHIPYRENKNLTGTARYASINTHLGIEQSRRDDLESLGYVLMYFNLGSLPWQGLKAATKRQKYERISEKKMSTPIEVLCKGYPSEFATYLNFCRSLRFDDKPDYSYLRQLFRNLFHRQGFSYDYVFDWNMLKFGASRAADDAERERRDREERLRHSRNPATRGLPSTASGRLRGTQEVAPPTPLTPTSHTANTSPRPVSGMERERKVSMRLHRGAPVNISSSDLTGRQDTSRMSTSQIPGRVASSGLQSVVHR
DYRK1B, sequence (Q9Y463 whole entry, species assumed): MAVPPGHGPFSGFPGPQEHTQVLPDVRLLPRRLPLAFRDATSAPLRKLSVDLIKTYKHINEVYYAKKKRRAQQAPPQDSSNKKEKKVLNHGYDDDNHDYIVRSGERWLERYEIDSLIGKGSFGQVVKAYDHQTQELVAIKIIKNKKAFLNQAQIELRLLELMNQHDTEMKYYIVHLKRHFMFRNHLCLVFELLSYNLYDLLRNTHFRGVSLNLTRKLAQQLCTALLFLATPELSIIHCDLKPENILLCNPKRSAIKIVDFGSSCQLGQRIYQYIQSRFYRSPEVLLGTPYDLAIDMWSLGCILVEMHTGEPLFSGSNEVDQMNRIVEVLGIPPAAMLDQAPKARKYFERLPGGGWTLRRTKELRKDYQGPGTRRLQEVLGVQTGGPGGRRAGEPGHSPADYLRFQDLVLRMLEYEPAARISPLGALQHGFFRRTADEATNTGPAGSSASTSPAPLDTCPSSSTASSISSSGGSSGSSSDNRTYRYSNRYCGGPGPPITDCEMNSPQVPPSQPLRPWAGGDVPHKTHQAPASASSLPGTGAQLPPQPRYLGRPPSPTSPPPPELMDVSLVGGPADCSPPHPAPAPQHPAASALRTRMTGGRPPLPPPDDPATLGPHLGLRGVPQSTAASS

Structure (SMILES): O=C(Nc1ccncc1)c1ccc(CNC2=C(Cl)C(=O)c3ccccc3C2=O)cc1 [MPT0L056]
- Kd (CSNK1D): 2000 nM
- Kd (DYRK1B): 1400 nM
- Kd (JNK1): 4200 nM
- Kd (JNK3): 430 nM
- Kd (PCTK1): > 10000 nM
- Kd (RIOK2): 6600 nM
- Kd (ROCK2): 580 nM
- GI50 (HepG2): 3600 nM
- GI50 (Hepatocytes): 30000 nM
- GI50 (MCF-7): 900 nM
- GI50 (OVCAR3): 1900 nM
- GI50 (T98): 5700 nM
- GI50 (U-87 MG): 2500 nM
- Hazard Ratio [1, 2]: 4.135
- Median survival [1, 2]: 48.55
- Median survival Ratio [1, 2]: 0.4876
- Hazard Ratio ([1]; Group 1 vs 5: 50 mg/kg): 1.959
- Median survival ([1]; Group 1 vs 5: 50 mg/kg): 29.95
- Median survival Ratio ([1]; Group 1 vs 5: 50 mg/kg): 0.7579
- Day of Max % BW Loss [1, 3]: 6 days
- MTV (n) Day 59 [1, 3]: 160 mm^3
- Max % BW Loss [1, 3]: −2.3%
- Median TTE [1, 3]: 48.5 days
- No. of NTR [1, 3]: 0
- No. of TR [1, 3]: 0
- T-C [1, 3]: 25.8 days
- antitumor activity (logrank analysis) [1, 3]: produced significant antitumor activity
- % TGD ([1]; Group 4: MPT0L056 100 mg/kg po qd to endpoint, 100 mg/kg): 114%
- Logrank Significance [1, 3]: ** (** = P < 0.01)
- Day of Max % BW Loss [1, 4]: 5 days
- MTV (n) Day 59 [1, 4]: 975 mm^3
- Max % BW Loss [1, 4]: −3.8%
- Median TTE [1, 4]: 30.0 days
- No. of LTTFS [1, 4]: 0
- No. of NTR [1, 4]: 2
- No. of TR [1, 4]: 0
- T-C [1, 4]: 7.3 days
- antitumor activity (logrank analysis) [1, 4]: but not 50 mg/kg (P=0.2087), produced significant antitumor activity
- % TGD ([1]; Group 5: MPT0L056 50 mg/kg po qd to endpoint, 50 mg/kg): 32%
- % TGD [1, 5]: 50%
- Day of Max % BW Loss [1, 5]: 5 days
- Max % BW Loss [1, 5]: −8.4%
- Median TTE [1, 5]: 34.0 days
- No. of CR [1, 5]: 0
- No. of LTTFS [1, 5]: 0
- No. of NTR [1, 5]: 0
- No. of PR [1, 5]: 0
- No. of TR [1, 5]: 0
- T-C [1, 5]: 11.3 days
- % TGD [1, 6]: 100%
- Day of Max % BW Loss [1, 6]: 3 days
- Max % BW Loss [1, 6]: −9.5%
- Median TTE [1, 6]: 45.3 days
- No. of LTTFS [1, 6]: 0
- T-C [1, 6]: 22.6 days
- synergistic effect of antitumor activity (logrank analysis) [1, 6]: significant synergistic effect of antitumor activity
- Logrank Significance [1, 6]: ** (** = P < 0.01)

Reference: US11919858B2, “Aminonapthoquinone compounds and pharmaceutical composition for blocking ubiquitination-proteasome system in diseases” (Calgent Biotechnology Co., Ltd., priority 2015, dated 2024)
